Measured values reported in ChEMBL document CHEMBL1145433, “Nuttingins A-F and malonganenones D-H, tetraprenylated alkaloids from the Tanzanian gorgonian Euplexaura nuttingi” (2007).
The source made the active and inactive calls. The calls are words filed in the database; no cut-off is given here.

How the values were obtained:
[1] = tested on: UT7; test: Growth inhibition of human UT7 cells at 0.4 ug/mL after 48 hrs by MTT assay; type: functional; conditions: UT7, 48 h
[2] = tested on: HEK293; test: Induction of apoptosis in 293 cells at 1.25 ug/mL; type: functional, cell-based; conditions: Homo sapiens
[3] = tested on: K562; test: Growth inhibition of human K562 cells at 0.4 ug/mL after 48 hrs by MTT assay; type: functional; conditions: K562, 48 h
[4] = tested on: UT7; test: Growth inhibition of human UT7 cells by MTT assay; type: functional, cell-based
[5] = tested on: K562; test: Growth inhibition of human K562 cells by MTT assay; type: functional, cell-based

Row | Compound | inhibition at 0.4 µg/mL [1] [%] | Activity [2] | inhibition at 0.4 µg/mL [3] [%] | Activity [4] | Activity [5]
1 | C/C(=C/C(=O)CC(C)C)CCC/C(C)=C/CC/C(C)=C/Cn1cnc2c1C(=O)N(C)CN2C [NUTTIGIN E] | 50 | Active | 30 |  | 
2 | C/C(=C\CC/C(C)=C/Cn1cnc2c1c(=O)ncn2C)CC/C=C(\C)CC(=O)CC(C)C |  | Active |  |  | 
3 | CNC(=O)c1c(N(C)C=O)ncn1C/C=C(\C)CC/C=C(\C)CCC/C(C)=C/C(=O)CC(C)C |  | Active |  |  | 
4 | C/C(=C\CC/C(C)=C/Cn1cnc2c1c(=O)n(C)c(=O)n2C)CC/C=C(\C)CC(=O)CC(C)C |  | Active |  |  | 
5 | C/C(=C\Cn1cnc2c1C(=O)N(C)CN2C)CC/C=C(\C)CCC/C(C)=C/C(=O)CC(C)C [NUTTINGIN D] | 50 | Active | 30 | Dose-dependent effect | Dose-dependent effect
6 | C/C(=C\CNC=O)CC/C=C(\C)CCC/C(C)=C/C(=O)CC(C)C |  | Active |  |  | 
7 | CNC(=O)c1c(N(C)C=O)ncn1C/C=C(\C)CC/C=C(\C)CC/C=C(\C)CC(=O)CC(C)C |  | Active |  |  | 
8 | C/C(=C/C(=O)CC(C)C)CCC/C(C)=C/CC/C(C)=C/Cn1cnc2c1c(=O)n(C)c(=O)n2C |  | Active |  |  | 
9 | C/C(=C\CC/C(C)=C/Cn1cnc2c1C(=O)N(C)CN2C)CC/C=C(\C)CC(=O)CC(C)C [NUTTINGIN C] | 50 | Active | 30 | Dose-dependent effect | Dose-dependent effect
10 | C/C(=C\Cn1cnc2c1c(=O)ncn2C)CC/C=C(\C)CCC/C(C)=C/C(=O)CC(C)C |  | Active |  |  | 
